{"source": "patent US10206906B2", "about": "“Synergistic combination of a phenolic-rich maple syrup extract and an antibiotic” (priority 2015, dated 2019)", "key": {"[1]": {"tested_on": "outer membrane of P. mirabilis HI4320", "assay": "Outer membrane permeabilization, NPN uptake assay", "format": "cell-based, Proteus mirabilis", "conditions": "sub-MIC; concentration giving maximal increase in NPN uptake", "experimental": "(§1) The cells are harvested, washed with 5 mM HEPES buffer (pH 7.2), and resuspended in the same volume (10 mL) of 5 mM HEPES buffer (pH 7.2) containing 1 mM N-ethylmaleimide (NEM, Sigma-Aldrich Canada). Aliquots (1 mL) are mixed with NPN to a final concentration of 10 μM (in cell suspension) and fluorescence is measured using the microplate reader (ex/em 350/420 nm)."}, "[2]": {"tested_on": "outer membrane of P. aeruginosa PAO1", "assay": "Outer membrane permeabilization, NPN uptake assay", "format": "cell-based, Pseudomonas aeruginosa", "conditions": "sub-MIC; concentration giving maximal increase in NPN uptake", "experimental": "as §1"}, "[3]": {"tested_on": "outer membrane of P. aeruginosa PA14", "assay": "Outer membrane permeabilization, NPN uptake assay", "format": "cell-based, Pseudomonas aeruginosa", "conditions": "sub-MIC; concentration giving maximal increase in NPN uptake", "experimental": "as §1"}, "[4]": {"tested_on": "cell membrane of E. coli CFT073", "assay": "BacLight membrane integrity assay", "format": "cell-based, Escherichia coli", "conditions": "PRMSE, catechol at 4 × MIC for 10 min; CTAB 10 μM; untreated = 100", "experimental": "The BacLight kit (L-13152, Invitrogen™, Life Technologies Inc., Canada) is used to assess cell membrane damage. Overnight bacterial cultures are diluted 1:40 in fresh MHBII broth to a final volume of 5 mL, grown to an OD600 of 0.5-0.6, washed with filter-sterilized 10 mM phosphate buffered saline (PBS, pH 7.0) and resuspended in 1/10 of the original volume. […] Cultures are incubated at room temperature (21±2° C.) on a tube rocker for 10 min. At the end of the incubation period, an aliquot is taken for CFU counts and the remaining suspension is washed with 10 mM PBS and resuspended to an OD600) of 0.3. An aliquot (100 μL) of each bacterial suspension is removed and added to a 96-well, black, clear-bottom plate (Corning™, Fisher Scientific, ON, Canada) along with an equal volume of the BacLight™ reagent (2× stock solution, L13152, Invitrogen™, Life Technologies Inc., Canada) and the plates are incubated for 10 min at room temperature in the dark. At the end of the incubation period, fluorescence intensity is recorded for both kit components, SYTO-9 (ex/em 485/530 nm) and propidium iodide (ex/em 485/645 nm), using the microplate reader. Fluorescence readings from samples are normalized to the values obtained from untreated control to determine the ratio of membrane compromised cells to cells with intact membrane. […]"}, "[5]": {"tested_on": "P. aeruginosa PAO1 biofilm", "assay": "Biofilm formation, microtitre plate crystal violet assay", "format": "cell-based, Pseudomonas aeruginosa", "conditions": "p<0.05", "experimental": "(§2) Biofilm formation is quantified using the standard microtitre plate model. […] Aliquots (100 μL) of these cultures are transferred into the wells of polystyrene, flat bottom, non-treated 96 well plates (Falcon™, Corning™), in triplicate. For all assays, biofilms are allowed to develop for 16 h at 37° C. under static conditions, after which OD600 values are recorded, the spent broth is decanted from the wells, and the wells are gently rinsed three times with DI water. The washed biofilm is stained with crystal violet (CV). For CV stain assay, 100 μL of 0.1% (w/v) CV is loaded in each well and the plates are incubated for 15 min under static conditions at room temperature. The wells are subsequently rinsed with DI water to remove excess dye and the CV adsorbed to the biomass in each well is solubilized in 100 μL of absolute ethanol for 10 min. The solubilized CV is then quantified (as OD570) using a microplate reader. Control experiments are performed with cell-free broth to adjust for the background signal."}, "[6]": {"tested_on": "P. aeruginosa PA14 biofilm", "assay": "Biofilm formation, microtitre plate crystal violet assay", "format": "cell-based, Pseudomonas aeruginosa", "conditions": "p<0.05", "experimental": "as §2"}, "[7]": {"tested_on": "E. coli CFT073", "assay": "Bacterial colony forming ability (CFU counts after exposure)", "format": "cell-based, Escherichia coli", "conditions": "log decrease vs untreated control, 4 × MIC, 10 min, CTAB 10 μM", "experimental": "(§3) The BacLight kit (L-13152, Invitrogen™, Life Technologies Inc., Canada) is used to assess cell membrane damage. Overnight bacterial cultures are diluted 1:40 in fresh MHBII broth to a final volume of 5 mL, grown to an OD600 of 0.5-0.6, washed with filter-sterilized 10 mM phosphate buffered saline (PBS, pH 7.0) and resuspended in 1/10 of the original volume. […] Cultures are incubated at room temperature (21±2° C.) on a tube rocker for 10 min. At the end of the incubation period, an aliquot is taken for CFU counts and the remaining suspension is washed with 10 mM PBS and resuspended to an OD600) of 0.3. An aliquot (100 μL) of each bacterial suspension is removed and added to a 96-well, black, clear-bottom plate (Corning™, Fisher Scientific, ON, Canada) along with an equal volume of the BacLight™ reagent (2× stock solution, L13152, Invitrogen™, Life Technologies Inc., Canada) and the plates are incubated for 10 min at room temperature in the dark. At the end of the incubation period, fluorescence intensity is recorded for both kit components, SYTO-9 (ex/em 485/530 nm) and propidium iodide (ex/em 485/645 nm), using the microplate reader. Fluorescence readings from samples are normalized to the values obtained from untreated control to determine the ratio of membrane compromised cells to cells with intact membrane. Cetyltrimethylammonium bromide (CTAB, Sigma-Aldrich Canada), a cationic detergent that is known to cause membrane damage, is used at concentration of 10 μM as a positive control for membrane disruption."}, "[8]": {"tested_on": "cell membrane of P. aeruginosa PAO1", "assay": "BacLight membrane integrity assay", "format": "cell-based, Pseudomonas aeruginosa", "conditions": "PRMSE, catechol at 4 × MIC for 10 min; CTAB 10 μM; untreated = 100", "experimental": "as §3"}, "[9]": {"tested_on": "cell membrane of P. aeruginosa PA14", "assay": "BacLight membrane integrity assay", "format": "cell-based, Pseudomonas aeruginosa", "conditions": "PRMSE, catechol at 4 × MIC for 10 min; CTAB 10 μM; untreated = 100", "experimental": "as §3"}, "[10]": {"tested_on": "E. coli CFT073", "assay": "Checkerboard microdilution assay (growth inhibition synergy)", "format": "cell-based, Escherichia coli", "experimental": "(§4) The checkerboard microdilution assay is used for evaluation of in vitro antimicrobial synergy between two compounds (i.e., antibiotic/PRMSE, antibiotic/pure phenolic compound, and pure phenolic compounds with each other). Two-fold serial dilutions are prepared in MHB-II for each of the two compounds under study. The serial dilutions are then loaded into 96 well plates to achieve combinations having different concentrations of each of the two compounds. Each well is subsequently inoculated with 10^6 CFU mL^−1 of the desired bacterial strain and incubated at 37° C. for 18 h under static conditions. The Fractional Inhibitory Concentration Index (FICI) for each combination is calculated by using the following formula: FICcomponent 1=MICcomponent 1, in combination/MICcomponent 1,alone FICI=FICcomponent 1+FICcomponent 2\n(§5) The FICIs are interpreted as follows: FICI of […] (synergy); 0.5<FICI ≤1 (no interaction/indifference); FICI of >4 (antagonism)."}, "[11]": {"tested_on": "P. aeruginosa PA14", "assay": "Bacterial colony forming ability (CFU counts after exposure)", "format": "cell-based, Pseudomonas aeruginosa", "conditions": "log decrease vs untreated control, 4 × MIC, 10 min, CTAB 10 μM", "experimental": "as §3"}, "[12]": {"tested_on": "P. aeruginosa PAO1", "assay": "Bacterial colony forming ability (CFU counts after exposure)", "format": "cell-based, Pseudomonas aeruginosa", "conditions": "log decrease vs untreated control; 4 × MIC, 10 min; CTAB 10 μM", "experimental": "as §3"}, "[13]": {"tested_on": "P. mirabilis HI4320", "assay": "Checkerboard microdilution assay (growth inhibition synergy)", "format": "cell-based, Proteus mirabilis", "experimental": "as §4, §5"}, "[14]": {"tested_on": "outer membrane of E. coli CFT073", "assay": "Outer membrane permeabilization, NPN uptake assay", "format": "cell-based, Escherichia coli", "conditions": "sub-MIC; concentration giving maximal increase in NPN uptake", "experimental": "as §1"}, "[15]": {"conditions": "substance alone at sub-lethal concentrations, 16 h"}, "[16]": {"conditions": "with ciprofloxacin, both at sub-lethal concentrations"}, "[17]": {"conditions": "ciprofloxacin in combination with the labelled phenolic constituent"}, "[18]": {"conditions": "labelled constituent + gallic acid, * = synergistic"}, "[19]": {"conditions": "labelled constituent combined with gallic acid"}, "[20]": {"conditions": "labelled phenolic constituent in combination with ciprofloxacin"}}}
{"smiles": "Oc1ccccc1O", "note": "[catechol, 1,2-dihydroxybenzene]", "values": [{"measurement": "Minimum permeabilization concentration", "setting": "[1]", "value": 1, "unit": "mg/mL"}, {"measurement": "Minimum permeabilization concentration", "setting": "[2]", "value": 0.5, "unit": "mg/mL"}, {"measurement": "Minimum permeabilization concentration", "setting": "[3]", "value": 0.5, "unit": "mg/mL"}, {"measurement": "% cells with uncompromised membrane (BacLight assay)", "setting": "[4]", "value": 68, "unit": "%"}, {"measurement": "inhibition of monoculture biofilm formation (OD570/OD600)", "setting": "[5]; [15]", "value": "significant inhibitory effects"}, {"measurement": "inhibitory effect on biofilm formation, with ciprofloxacin", "setting": "[5]; [16]", "value": "significant inhibitory effects"}, {"measurement": "inhibition of monoculture biofilm formation (OD570/OD600)", "setting": "[6]; [15]", "value": "significant inhibitory effects"}, {"measurement": "inhibitory effect on biofilm formation, with ciprofloxacin", "setting": "[6]; [16]", "value": "significant inhibitory effects"}, {"measurement": "Bacterial colony forming ability (Δ log CFU mL^−1)", "setting": "[7]", "value": "2.3 Δ log CFU mL^−1"}, {"measurement": "Bacterial colony forming ability (Δ log CFU mL^−1)", "setting": "[7]; listed as Catechol", "value": "≥ 1.5 Δ log CFU mL^−1"}, {"measurement": "% cells with uncompromised membrane", "setting": "[8]", "value": 80.4, "unit": "%"}, {"measurement": "% cells with uncompromised membrane", "setting": "[9]", "value": 78.6, "unit": "%"}, {"measurement": "FIC of ciprofloxacin", "setting": "[10]; [17]", "value": 0.25}, {"measurement": "FICI, gallic acid", "setting": "[10]; [18]", "value": "0.25*"}, {"measurement": "FIC, gallic acid", "setting": "[10]; [19]", "value": 0.13}, {"measurement": "FIC of compound", "setting": "[10]; [20]", "value": 0.25}, {"measurement": "Bacterial colony forming ability (Δ log CFU mL^−1)", "setting": "[11]", "value": "1.9 Δ log CFU mL^−1"}, {"measurement": "Bacterial colony forming ability (Δ log CFU mL^−1)", "setting": "[11]; listed as Catechol", "value": "≥ 1.5 Δ log CFU mL^−1"}, {"measurement": "Bacterial colony forming ability (Δ log CFU mL^−1)", "setting": "[12]", "value": "1.5 Δ log CFU mL^−1"}, {"measurement": "FIC of ciprofloxacin", "setting": "[13]; [17]", "value": 0.25}, {"measurement": "FICI, gallic acid", "setting": "[13]; [18]", "value": "0.37*"}, {"measurement": "FIC, gallic acid", "setting": "[13]; [19]", "value": 0.13}, {"measurement": "FIC of compound", "setting": "[13]; [20]", "value": 0.25}, {"measurement": "Minimum permeabilization concentration (NPN assay)", "setting": "[14]", "value": 0.06, "unit": "mg/mL"}]}
